How the values were obtained:
Type in all cases: in vivo, human
[1] = tested on: KRAS mutant and NRAS mutant IgG lambda multiple myeloma; assay: Example 1: oral treatment of a multiple myeloma patient, 3 weeks on/1 week off; settings: for FLCk: pre 325 mg/L, 4 mg twice weekly
Method: A potassium salt of compound (I) (the potassium salt being also referred to as the “IMP” in this example) was orally administered to a patient with KRAS mutant and NRAS mutant IgG lambda multiple myeloma at a dose of 4 mg twice weekly (Tuesday and Friday) in 4-week cycles consisting of 3 weeks of treatment followed by 1 week of rest (3 weeks on/1 week off). Dexamethasone was not used in combination with the IMP.
The patient started dosing on 29 Nov., 2016. […] initial and ongoing toxicity was intermittent Grade 1 diarrhoea that may be related to the IMP.
The patient had previously been treated with: • Autologous stem cell transplant • Proteasome inhibitor • Immunomodulatory drug • Cyclophosphamide+Dexamethasone+Thalidomide • Melphalan • Lenalidomide • Cyclophosphamide+Bortezomib • Dexamethasone • Spine T3-T12, 5 fractions (radiotherapy)

[2] = tested on: KRAS mutant non-small-cell lung cancer; assay: Example 2: oral treatment of a non-small-cell lung cancer patient with stepwise dose reduction; settings: for best response, reduction in target lesions by RECIST 1.1: CT scan
Method: A potassium salt of compound (I) (the potassium salt being also referred to as the “IMP” in this example) was orally administered to a patient with KRAS mutant non-small-cell lung cancer.
The patient started treatment on 1 Sep., 2014. The IMP was first administered at a dose of 4 mg twice weekly in 4-week cycles consisting of 4 weeks of treatment (4 mg 4 wk on). In Cycle 9, due to Grade 3 maculopapular rash, the dosage was reduced to 3.2 mg twice weekly in 4-week cycles (3.2 mg 4 wk on). In Cycle 22, due to Grade 3 facial rash, the dosage was reduced again to a 3 weeks on/1 week off schedule with 3.2 mg twice weekly (3.2 mg 3 wk on/1 wk off).
The horizontal axis (X-axis) represents the treatment cycle number and the vertical axis (Y-axis) represents the rate of change of tumor size from baseline. The tumor size was measured by CT scan. The best responses of the dosing schedules 4 mg 4 wk on, 3.2 mg 4 wk on, and 3.2 mg 3 wk on/1 wk off were 58% reduction, 61% reduction, and 68% reduction in target lesions by RECIST 1.1, respectively. Treatment of the patient by the IMP is being continued as of 18 Apr., 2018 (at Cycle 48, equivalent to 3.6 years) without any Grade 2 or higher rash being observed.
The patient had previously been treated with: • Carboplatin/Pemetrexed • Pemetrexed • Docetaxel • Pleurodesis (October 2012) (surgery)

[3] = tested on: HRAS mutant apocrine adenocarcinoma of the scalp; assay: Example 3: oral treatment of an apocrine adenocarcinoma patient following the dosing guidance; settings: for reduction in tumor size: CT scan
Method: A potassium salt of compound (I) (the potassium salt being also referred to as the “IMP” in this example) was orally administered to a patient with HRAS mutant apocrine adenocarcinoma of the scalp. Apocrine adenocarcinoma of the scalp is a cutaneous sweat gland carcinoma. The patient was diagnosed in 2014, and had radiotherapy and surgery twice before treatment with the IMP.
Treatment of the patient by the IMP was started on 8th Jan., 2018 at a dose of 4 mg twice weekly in 4-week cycles. In Cycle 1 Week 3, the patient had Grade 2 acneiform rash and Grade 2 diarrhoea and thus the dosage was reduced to a 3 weeks on/1 week off schedule with 4 mg twice weekly. The grade of acneiform rash was one (1) in Cycle 2 Day 1, […] in Cycle 2 Day 22, and two (2) in Cycle 3 Day 1. Thus, the dose at Cycle 3 Day 1 was not reduced to 3.2 mg and was determined as 4 mg.
Treatment of the patient by the IMP is ongoing as of 30th Apr., 2018 (Cycle 5 Day 1) without any Grade 2 or higher rash or diarrhoea being observed.

[4] = tested on: solid cancers; assay: Earlier dosing regimen (twice weekly, 4 mg per administration) in patients; settings: some cases
Method: In regard to the usage and dosage of compound (I) or a salt thereof, a potassium salt of compound (I) is known to be administered to patients with solid cancers such as non-small-cell lung cancer, ovarian cancer, endometrial cancer, and colorectal cancer twice weekly at a dose of 4 mg per administration (see non patent document 1).

[5] = 4 mg twice weekly in 4-week cycles, Cycle 1 Week 3

For `CNS(=O)(=O)[N-]c1nccc(Cc2c(C)c3ccc(Oc4ncccn4)cc3oc2=O)c1F.[K+]` [IMP], the “rash related to the IMP (grade)” value ([1]; 4 mg twice weekly oral, no dexamethasone) was 2 Grade, the “diarrhoea (toxicity grade)” value ([1]; 4 mg twice weekly oral, no dexamethasone, initial and ongoing, intermittent, may be related to the IMP) was 1 Grade and the “response as per IMWG criteria” value ([1]; 4 mg twice weekly oral, ongoing) was “partial response”. The FLCk ([1]; after 1 cycle) was 161 mg/L, the FLCk ([1]; after 2 cycles) was 264 mg/L and the “rash (grade) after the reductions” value ([2]; 3.2 mg twice weekly, 3 wk on/1 wk off) was 1 Grade. The “facial rash (grade)” value ([2]; 3.2 mg twice weekly, 4 wk on, Cycle 22) was 3 Grade, the “maculopapular rash (grade)” value ([2]; 4 mg twice weekly, 4 wk on, Cycle 9) was 3 Grade and the “rash observed (grade) during continued treatment” value ([2]; as of Cycle 48 (3.6 years)) was under 2 Grade. The “response by RECIST 1.1” value ([2]; maintained at Cycle 40, 3.2 mg 3 wk on/1 wk off) was “partial response”, the “best response, reduction in target lesions by RECIST 1.1” value (“best response, reduction” below) ([2]; schedule 3.2 mg 3 wk on/1 wk off) was 68% and the “best response, reduction” value ([2]; schedule 3.2 mg 4 wk on) was 61%. The “best response, reduction” value ([2]; schedule 4 mg 4 wk on) was 58%, the “acneiform rash (grade)” value [3, 5] was 2 Grade and the “diarrhoea (grade)” value [3, 5] was 2 Grade. For the same molecule, the “response by RECIST 1.1 (tumor size by CT scan)” value ([3]; 4 mg twice weekly, 3 weeks on/1 week off) was “partial response”, the “acneiform rash (grade)” value ([3]; 4 mg twice weekly, 3 weeks on/1 week off, Cycle 2 Day 1) was 1 Grade and the “acneiform rash (grade)” value ([3]; 4 mg twice weekly, 3 weeks on/1 week off, Cycle 2 Day 22) was 3 Grade. The “acneiform rash (grade)” value ([3]; 4 mg twice weekly, 3 weeks on/1 week off, Cycle 3 Day 1) was 2 Grade, the “reduction in tumor size” value ([3]; Cycle 2 Day 22) was 54% and the “reduction in tumor size” value ([3]; Cycle 4 Day 15) was 58%. For the same molecule, the “diarrhoea observed (grade) during ongoing treatment” value ([3]; as of Cycle 5 Day 1) was under 2 Grade and the “rash observed (grade) during ongoing treatment” value ([3]; as of Cycle 5 Day 1) was under 2 Grade.

In the case of `CNS(=O)(=O)Nc1nccc(Cc2c(C)c3ccc(Oc4ncccn4)cc3oc2=O)c1F` [compound (I)], the “adverse event leading to unplanned dose interruption and/or dose reduction” value [4] is reported as “worsening of skin rash”.

Source: patent publication US12390465B2, “Coumarin derivative for therapy or prophylaxis of a cell proliferative disorder” (The Institute of Cancer Research: Royal Cancer Hospital, priority 2017, dated 2025)
